Test results: patent US11566017B2, “Dihydroquinazolinone compound or pharmacologically acceptable salt, and cell growth inhibitor” (RIKEN, priority 2017, dated 2023)

Legend:
tankyrase 1 (TNKS1) = biological target: T1, tankyrase 1 (TNKS1) (Homo sapiens, UniProt O95271); experiment: Tankyrase inhibitory activity test (ELISA, auto-poly(ADP-ribosyl)ation), tankyrase 1; assay type: biochemical; details: Flag tagged tankyrase 1 (1,024-1,327aa, SAM+PARP); read-out: TNKS1 (inhibitory activity against tankyrase 1, IC50)
T1 construct: tankyrase 1 (1,024-1,327aa, SAM+PARP); made in house; host or cells: cell-free protein expression system
T1 sequence (O95271 1024-1327): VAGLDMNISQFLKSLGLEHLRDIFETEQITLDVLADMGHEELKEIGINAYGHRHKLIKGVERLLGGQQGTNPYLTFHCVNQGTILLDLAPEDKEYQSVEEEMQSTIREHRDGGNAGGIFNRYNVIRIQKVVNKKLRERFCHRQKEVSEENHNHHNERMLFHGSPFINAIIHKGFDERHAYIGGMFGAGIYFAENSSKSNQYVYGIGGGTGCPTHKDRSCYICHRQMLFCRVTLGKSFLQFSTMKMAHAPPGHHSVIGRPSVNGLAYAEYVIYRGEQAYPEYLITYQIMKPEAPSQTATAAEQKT
Method: (§1) The enzymatic activity of tankyrase 1 and the enzymatic activity of tankyrase 2 were measured by the ELISA method based on assessment of auto-poly(ADP-ribosyl)ation to evaluate the tankyrase inhibitory activity of the compound prepared in each of Examples (test compound) (inhibitory activity against tankyrase 1 (TNKS1) and inhibitory activity against tankyrase 2 (TNKS2)). First, Flag tagged tankyrase 1 (1,024-1,327aa, SAM+PARP) and tankyrase 2 (613-1,116aa, ANK5+SAM+PARP) were synthesized with a cell-free protein expression system, and diluted with a Tris buffer solution (50 mM Tris-HCl (pH 8.0), 150 mM NaCl, 10% glycerol). 50 μL of the diluted tankyrase 1 or tankyrase 2 was added to a plate with an anti-FLAG M2 monoclonal antibody immobilized thereon (Anti-FLAG High-Sensitivity M2-Coated Plate) (Sigma-Aldrich), and the plate was left standing overnight at 4° C. Thereafter, the plate was washed four times with a PBS (PBST) buffer containing 0.1% Triton X-100. For Example 84, the Anti-FLAG High-Sensitivity M2-Coated Plate was replaced by an immunoplate (Thermo Fisher Scientific), tankyrase 1 or tankyrase 2 was immobilized on the immunoplate, and the immunoplate was then blocked with Blocking One (nacalai tesque), then washed with a PBS (PBST) buffer, and used as the following plate.
(§2) Subsequently, the test compound diluted with an assay buffer (50 mM Tris-HCl (pH 8.0), 4 mM MgCl2, 0.2 mM DTT) (DMSO was used as a control) was added to each well of the plate, and the plate was left standing at room temperature for 10 minutes. Thereafter, a biotin-labeled NAD solution (225 μM NAD, 25 μM 6-Biotin-17-NAD (Travigen, Inc.)) was added and mixed as a donor substrate, and the mixture was reacted at 30° C. for 45 minutes. To blank wells was added distilled water instead of the biotin-labeled NAD solution. After the reaction, the plate was washed with a PBST buffer four times. Thereafter, HRP (horseradish peroxidase)-labeled streptavidin (Travigen, Inc.) was diluted with a PBS buffer by 1,000 times, and added to each well, and the mixture was reacted at room temperature for 20 minutes. The plate was washed with a PBST buffer four times, a chemiluminescent substrate solution TACS-Sapphire (Travigen, Inc.) was then added to each well, the mixture was reacted at room temperature for 20 minutes, and the chemiluminescence intensity was measured using a chemiluminescence measuring apparatus. For Example 84, the streptavidin was diluted by 5,000 times, the chemiluminescent substrate solution TACS-Sapphire was replaced by an ELISA POD substrate TMB solution easy (nacalai tesque), the mixture was reacted at room temperature for 30 minutes, and the chemiluminescence intensity was measured using a chemiluminescence measuring apparatus.
(§3) The residual enzymatic activity in the presence of the test compound was determined from the following expression. On the basis of the residual enzymatic activity at each of multiple concentrations of the test compound, the enzyme inhibitory activity was calculated in terms of a 50%-inhibition concentration (IC50 value) using data analysis software Origin (LightStone Corp.). Residual activity (%)={(chemiluminescence intensity with test compound added)−(chemiluminescence intensity of blank)}/{(chemiluminescence intensity of control)−(chemiluminescence intensity of blank)}

tankyrase 2 (TNKS2) = biological target: T2, tankyrase 2 (TNKS2) (Homo sapiens, UniProt Q9H2K2); experiment: Tankyrase inhibitory activity test (ELISA, auto-poly(ADP-ribosyl)ation), tankyrase 2; assay type: biochemical; details: Flag tagged tankyrase 2 (613-1,116aa, ANK5+SAM+PARP); read-out: TNKS2 (inhibitory activity against tankyrase 2, IC50)
T2 construct: tankyrase 2 (613-1,116aa, ANK5+SAM+PARP); made in house; host or cells: cell-free protein expression system
Method: as §1, §2, §3

[1] = system: human colorectal cancer cell line COLO-320DM; experiment: Cell proliferation inhibitory activity test (Celltiter-Glo); assay type: cell-based; details: COLO-320DM cells, 96 hours
Method: The cell proliferation inhibitory activity of the compound, which had been prepared in each of Examples, against the human colorectal cancer cell line COLO-320DM was evaluated by Celltiter-Glo Luminescent Cell Viability Assay (Promega Corporation; G7573). COLO-320DM cells were cultured in RPMI-1640 medium containing 2 mM glutamine (Wako Pure Chemical Industries, Ltd; 189-02025) supplemented with 10% fetal bovine serum. The cultured cells were washed with PBS, and then dissociated with trypsin/EDTA, and a cell solution with 3×10^4 cells/mL was prepared.
Subsequently, the cell solution was seeded in a 96-well microplate (Thermo/Nunc Company; 136101) in an amount of 70 μL per well, and cultured overnight under the condition of 37° C. and 5% CO2. Next day, a test compound solution obtained by diluting the test compound (DMSO solution) with a cell culture medium (final concentration of DMSO was 1%) was added in an amount of 10 μL per well, and the mixture was reacted under the condition of 37° C. and 5% CO2 for 96 hours (a 1% DMSO solution was used as a control). Thereafter, a Celltiter-GloLuminescent Cell Viability Assay reagent (Promega Corporation; G7573) was added in an amount of 80 μL per well, the mixture was stirred with a shaker for 2 minutes while light was blocked with an aluminum foil, and the mixture was incubated at room temperature for 10 minutes.
Thereafter, a luminescence signal was measured with a luminometer (Biotech Company; Synergy). The ratio of cell proliferation in each compound addition group to cell proliferation in a control group containing no test compound solution, where cell proliferation in the control group is 100%, was calculated and the value of a compound concentration necessary for suppressing the amount of residual cells to 50% of that in the control (GI50) was calculated as the cytostatic activity. […] An unevaluated test compound was designated as “NT”.

SMILES | IC50 (tankyrase 1 (TNKS1)) | IC50 (tankyrase 2 (TNKS2)) | GI50 [1]
CN1CCN(Cc2cccc(-c3ccc(-c4n[nH]cc4C4NC(=O)c5ccccc5N4C)cc3)c2)CC1 (stereo not drawn) [Example 26, 1-Methyl-2-[5-[4-[3-[(4-methylpiperazin-1-yl)methyl]phenyl]phenyl]-1H-pyrazol-4-yl]-2,3-dihydroquinazolin-4-one] | 20 to 50 nM | 5 to 20 nM | ≥ 10 µM
CN1c2ccccc2C(=O)NC1c1c[nH]nc1-c1ccc(C(=O)O)cc1 (stereo not drawn) [Example 2, 4-[4-(1-Methyl-4-oxo-2,3-dihydroquinazolin-2-yl)-1H-pyrazol-5-yl]benzoic Acid] | < 5 nM | < 5 nM | –
CCOc1ccc(-c2n[nH]nc2C2NC(=O)c3cccc(CC)c3N2)cc1 (stereo not drawn) [Example 80, 2-[5-(4-Ethoxyphenyl)-2H-1,2,3-triazol-4-yl]-8-ethyl-2,3-dihydro-1H-quinazolin-4-one] | 5 to 20 nM | 5 to 20 nM | < 1 µM
COc1ccc(-c2c[nH]nc2C2NC(=O)c3ccccc3N2C)cc1 (stereo not drawn) [Example 86, 2-[4-(4-Methoxyphenyl)-1H-pyrazol-3-yl]-1-methyl-2,3-dihydro-1H-quinazolin-4-one] | < 5 nM | < 5 nM | 1 to 10 µM
COC(=O)c1ccc(-c2n[nH]cc2C2NC(=O)c3ccccc3N2C)cc1 (stereo not drawn) [Example 1, Methyl 4-[4-(1-methyl-4-oxo-2,3-dihydroquinazolin-2-yl)-1H-pyrazol-5-yl]benzoate] | 20 to 50 nM | 5 to 20 nM | –
CN1CCN(Cc2ccc(-c3ccc(-c4n[nH]cc4C4NC(=O)c5ccccc5N4C)cc3)cc2)CC1 (stereo not drawn) [Example 25, 1-Methyl-2-[5-[4-[4-[(4-methylpiperazin-1-yl)methyl]phenyl]phenyl]-1H-pyrazol-4-yl]-2,3-dihydroquinazolin-4-one] | 5 to 20 nM | 20 to 50 nM | ≥ 10 µM
COc1ccc(-c2c[nH]nc2C2NC(=O)c3cccc(C)c3N2)cc1 (stereo not drawn) [Example 87, 2-[4-(4-Methoxyphenyl)-1H-pyrazol-3-yl]-8-methyl-2,3-dihydro-1H-quinazolin-4-one] | < 5 nM | < 5 nM | 1 to 10 µM
CN1c2ccccc2C(=O)NC1c1c[nH]nc1-c1ccc(-c2ccc(N3CCNCC3)cc2)cc1 (stereo not drawn) [Example 41] | 20 to 50 nM | 5 to 20 nM | 1 to 10 µM
Cc1cccc2c1NC(c1n[nH]nc1-c1ccc(OCC(F)F)cc1)NC2=O (stereo not drawn) [Example 78, 2-[4-[4-(2,2-Difluoroethoxy)phenyl]-2H-1,2,3-triazol-5-yl]-8-methyl-2,3-dihydro-1H-quinazolin-4-one] | 5 to 20 nM | < 5 nM | 1 to 10 µM
COc1ccc(-c2n[nH]cc2C2NC(=O)c3ccc(C)cc3N2C)cc1 (stereo not drawn) [Example 53, 2-[5-(4-Methoxyphenyl)-1H-pyrazol-4-yl]-1,7-dimethyl-2,3-dihydroquinazolin-4-one] | 5 to 20 nM | 5 to 20 nM | ≥ 10 µM
O=C1NC(c2n[nH]nc2-c2ccc(OCC(F)F)cc2)N2CCc3cccc1c32 (stereo not drawn) [Example 84, 11-[5-[4-(2,2-Difluoroethoxy)phenyl]-2H-1,2,3-triazol-4-yl]-1,10-diazatricyclo[6.3.1.0^4,12]dodeca-4(12),5,7-trien-9-one] | 5 to 20 nM | 5 to 20 nM | ≥ 10 µM
CN1c2ccccc2C(=O)NC1c1c[nH]nc1-c1ccccc1 (stereo not drawn) [Example 10, 1-Methyl-2-(3-phenyl-1H-pyrazol-4-yl)-2,3-dihydroquinazolin-4-one] | 5 to 20 nM | < 5 nM | ≥ 10 µM
COc1ccc(-c2n[nH]cc2C2NC(=O)c3cccc(C)c3N2)cc1F (stereo not drawn) [Example 56, 2-[5-(3-Fluoro-4-methoxyphenyl)-1H-pyrazol-4-yl]-8-methyl-2,3-dihydro-1H-quinazolin-4-one] | 5 to 20 nM | 5 to 20 nM | ≥ 10 µM
COc1ccc(-c2n[nH]nc2C2NC(=O)c3cccc(C(F)(F)F)c3N2)cc1 (stereo not drawn) [Example 71, 2-[5-(4-Methoxyphenyl)-2H-1,2,3-triazol-4-yl]-8-(trifluoromethyl)-2,3-dihydro-1H-quinazolin-4-one] | 20 to 50 nM | 20 to 50 nM | 1 to 10 µM
CN(C)c1ccc(-c2ccc(-c3n[nH]cc3C3NC(=O)c4ccccc4N3C)cc2)cc1 (stereo not drawn) [Example 34, 2-[5-[4-[4-(Dimethylamino)phenyl]phenyl]-1H-pyrazol-4-yl]-1-methyl-2,3-dihydroquinazolin-4-one] | 20 to 50 nM | 20 to 50 nM | 1 to 10 µM
COc1ccc(-c2n[nH]nc2C2NC(=O)c3ccccc3N2)cc1 (stereo not drawn) [Example 59, 2-[5-(4-Methoxyphenyl)-2H-1,2,3-triazol-4-yl]-2,3-dihydro-1H-quinazolin-4-one] | 20 to 50 nM | < 5 nM | 1 to 10 µM
CN1c2ccccc2C(=O)NC1c1c[nH]nc1-c1ccc(Br)c(F)c1 (stereo not drawn) [Example 43, 2-[3-(4-Bromo-3-fluorophenyl)-1H-pyrazol-4-yl]-1-methyl-2,3-dihydroquinazolin-4-one] | < 5 nM | < 5 nM | ≥ 10 µM
CN1c2ccccc2C(=O)NC1c1c[nH]nc1-c1ccc(-c2ccc(N3CCOCC3)cc2)cc1 (stereo not drawn) [Example 29] | 5 to 20 nM | 5 to 20 nM | 1 to 10 µM
CN1c2ccccc2C(=O)NC1c1c[nH]nc1-c1cccc(-c2ccc(N3CCOCC3)cc2)c1 (stereo not drawn) [Example 30] | 5 to 20 nM | 5 to 20 nM | 1 to 10 µM
CN1c2ccccc2C(=O)NC1c1c[nH]nc1-c1ccc(F)cc1 (stereo not drawn) [Example 21, 2-[3-(4-Fluorophenyl)-1H-pyrazol-4-yl]-1-methyl-2,3-dihydroquinazolin-4-one] | 20 to 50 nM | 5 to 20 nM | ≥ 10 µM
Cc1cccc2c1NC(c1c[nH]nc1-c1ccc(OCC(F)(F)F)cc1)NC2=O (stereo not drawn) [Example 54, 8-Methyl-2-[3-(4-(2,2,2-trifluoroethoxy)phenyl)-1H-pyrazol-4-yl]-2,3-dihydro-1H-quinazolin-4-one] | 5 to 20 nM | < 5 nM | 1 to 10 µM
O=C1NC(c2c[nH]nc2-c2ccccc2)Nc2ccccc21 (stereo not drawn) [Example 9, 2-(3-Phenyl-1H-pyrazol-4-yl)-2,3-dihydro-1H-quinazolin-4-one] | 20 to 50 nM | 20 to 50 nM | –
